Test results from patent US9133200B2, “Imidazo[1,2-b]pyridazine and imidazo[4,5-b]pyridine derivatives as JAK inhibitors” (Almirall, S.A., priority 2010, dated 2015).

Assays:
Format in all cases: biochemical
[1] = target: T1, human JAK3 (aa 795-1124) (Homo sapiens, UniProt P52333); experiment: In vitro JAK kinase assay (TR-FRET), JAK3; settings: catalytic domain GST-fusion; ATP 0.6 μM; poly (GT)-Biotin 140 nM; 30 minutes at room temperature
T1 construct: JAK3 (aa 795-1124); GST (N); purchased Carna Biosciences; host or cells: baculovirus expression system
T1 sequence (P52333 795-1124): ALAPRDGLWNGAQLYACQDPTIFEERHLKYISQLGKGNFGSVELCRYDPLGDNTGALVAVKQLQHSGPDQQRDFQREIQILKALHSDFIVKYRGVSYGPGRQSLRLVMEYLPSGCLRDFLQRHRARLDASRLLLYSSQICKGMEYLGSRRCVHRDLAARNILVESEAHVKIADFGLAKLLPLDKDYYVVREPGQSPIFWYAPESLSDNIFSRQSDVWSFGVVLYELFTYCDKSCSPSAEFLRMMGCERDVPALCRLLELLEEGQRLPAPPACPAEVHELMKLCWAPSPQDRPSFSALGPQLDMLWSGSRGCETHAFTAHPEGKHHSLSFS
Experimental: (§1) Compounds were screened for their ability to inhibit JAK1, JAK2 and JAK3 using the assays as indicated below.
(§2) The catalytic domains of human JAK1 (aa 850-1154), JAK2 (aa 826-1132), JAK3 (aa 795-1124) and Tyk2 (aa 871-1187) were expressed as N-terminal GST-fusion proteins using a baculovirus expression system and were purchased from Carna Biosciences. The enzymatic activity was assayed using as substrate a biotinylated peptide, poly (GT)-Biotin (CisBio). The peptide concentration in the reactions was 60 nM for JAK1, […], 140 nM for JAK3 and 50 nM for Tyk2. The degree of phosphorylation was detected by TR-FRET (time-resolved fluorescence energy transfer).
(§3) IC50s of compounds were measured for each kinase in a reaction mixture containing the enzyme, ATP and the peptide in 8 mM MOPS (pH 7.0), 10 mM MgCl2, 0.05% […], 0.45 mg/ml BSA. The ATP concentration in the reactions was 3 μM for JAK1, 0.2 μM for JAK2, 0.6 μM for JAK3 and 1.8 μM for Tyk2. The enzymatic reactions took place for 30 minutes at room temperature. Then, the reactions were stopped with 20 μL of quench detection buffer (50 mM HEPES, 0.5 M KF, EDTA 0.25 M, 0.1% (w/v) BSA, pH 7.5) containing 0.115 μg/mL of anti-phosphoTyr (PT66)-Cryptate (CisBio) and a variable concentration of SA-XL665 (CisBio) to keep the SA-B ratio constant. Incubate for 3 h and read on Victor 2V spectrofluorometer (PerkinElmer) set to read fluorescence resonance energy transfer.

[2] = target: T2, human JAK2 (aa 826-1132) (Homo sapiens, UniProt O60674); experiment: In vitro JAK kinase assay (TR-FRET), JAK2; settings: catalytic domain GST-fusion; ATP 0.2 μM; poly (GT)-Biotin; 30 minutes at room temperature
T2 construct: JAK2 (aa 826-1132); GST (N); purchased Carna Biosciences; host or cells: baculovirus expression system
T2 sequence (O60674 826-1132): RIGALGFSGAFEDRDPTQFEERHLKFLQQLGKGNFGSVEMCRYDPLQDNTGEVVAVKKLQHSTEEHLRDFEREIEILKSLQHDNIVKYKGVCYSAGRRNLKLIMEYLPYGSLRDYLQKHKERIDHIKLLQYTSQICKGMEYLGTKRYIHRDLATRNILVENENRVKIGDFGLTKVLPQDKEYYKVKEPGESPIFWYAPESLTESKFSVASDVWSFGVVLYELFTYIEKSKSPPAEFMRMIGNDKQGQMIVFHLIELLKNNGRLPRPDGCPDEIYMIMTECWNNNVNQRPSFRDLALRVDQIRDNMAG
Experimental: as §1, §2, §3

[3] = target: T3, human JAK1 (aa 850-1154) (Homo sapiens, UniProt P23458); experiment: In vitro JAK kinase assay (TR-FRET), JAK1; settings: catalytic domain GST-fusion; ATP 3 μM; poly (GT)-Biotin 60 nM; 30 minutes at room temperature
T3 construct: human JAK1 (aa 850-1154); GST (N); purchased Carna Biosciences; host or cells: baculovirus expression system
T3 sequence (P23458 850-1154): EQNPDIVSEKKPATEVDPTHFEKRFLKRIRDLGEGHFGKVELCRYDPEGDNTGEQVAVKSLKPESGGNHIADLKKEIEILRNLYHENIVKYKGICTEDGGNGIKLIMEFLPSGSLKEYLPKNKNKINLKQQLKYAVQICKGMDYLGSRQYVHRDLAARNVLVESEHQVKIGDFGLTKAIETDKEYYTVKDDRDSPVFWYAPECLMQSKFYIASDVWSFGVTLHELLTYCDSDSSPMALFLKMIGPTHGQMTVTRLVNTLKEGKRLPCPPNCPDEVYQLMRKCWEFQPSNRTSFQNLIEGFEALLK
Experimental: as §1, §2, §3

SMILES | IC50 [1] | IC50 [2] | IC50 [3]
C[C@H](Nc1ccc2ncn(-c3cc(Cl)c[nH]c3=O)c2n1)c1ccc(F)cn1 [Example 13, 5-Chloro-3-(5-{[(1S)-1-(5-fluoropyridin-2-yl)ethyl]amino}-3H-imidazo[4,5-b]pyridin-3-yl)pyridin-2(1H)-one] | < 100 nM | < 100 nM | < 100 nM
C[C@H](Nc1ccc2ncc(-c3cc(Cl)c[nH]c3=O)n2n1)c1ccc(F)cn1 [Example 8, 5-Chloro-3-(6-{[(1S)-1-(5-fluoropyridin-2-yl)ethyl]amino}imidazo[1,2-b]pyridazin-3-yl)pyridin-2(1H)-one] | < 100 nM | < 100 nM | < 100 nM
Cc1cc2ncc(-c3ccc[nH]c3=O)n2nc1N[C@@H](C)c1ccc(F)cn1 [Example 9, 3-(6-{[(1S)-1-(5-Fluoropyridin-2-yl)ethyl]amino}-7-methylimidazo[1,2-b]pyridazin-3-yl)pyridin-2(1H)-one] | < 100 nM | < 100 nM | < 100 nM
C[C@H](Nc1ccc2ncc(-c3ccc[nH]c3=O)n2n1)c1ncc(F)cn1 [Example 5, 3-(6-{[(1S)-1-(5-Fluoropyrimidin-2-yl)ethyl]amino}imidazo[1,2-b]pyridazin-3-yl)pyridin-2(1H)-one] | < 100 nM | < 100 nM | < 100 nM

Other lines, results leading:

IC50 [1] | IC50 [2] | IC50 [3] | SMILES
< 100 nM | < 100 nM | 100 to 1000 nM | C[C@@H](Nc1ccc2ncc(-c3ccc[nH]c3=O)n2n1)c1ccc(F)cn1 [Example 4, 3-(6-{[(1R)-1-(5-Fluoropyridin-2-yl)ethyl]amino}imidazo[1,2-b]pyridazin-3-yl) pyridin-2(1H)-one]
< 100 nM | < 100 nM | < 100 nM | N#CCC(=O)N1CCC[C@@H](Nc2ccc3ncc(-c4ccc[nH]c4=O)n3n2)C1 [Example 1, 3-Oxo-3-((3R)-3-{[3-(2-oxo-1,2-dihydropyridin-3-yl)imidazo[1,2-b]pyridazin-6-yl]amino}piperidin-1-yl)propanenitrile]
< 100 nM | < 100 nM | 100 to 1000 nM | C[C@H](Nc1ccc2ncc(-c3ccn[nH]c3=O)n2n1)c1ccccc1 [Example 6, 4-(6-{[(1S)-1-Phenylethyl]amino}imidazo[1,2-b]pyridazin-3-yl)pyridazin-3(2H)-one]
